Entries after “also recorded” stand apart in the source; their conditions may differ.
What was measured:
[1] = system: human pluripotent stem cells; test: HD-DoE stage 1, additional experiment: FEZF2 expression; assay type: cell-based; settings: for impact on expression of FEZF2: dynamic profile, in words; for factor contribution, expression of FEZF2: positive impact, additional stage 1 experiment optimized for FEZF2
Outline: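 Human pluripotent stem cells were exposed for three days to DoE-designed combinations of effectors in basal medium, including LDN193189, PD173074, BLU9931, purmorphamine, CHIR99021, XAV939, tofacitinib and GO6983 among others. Gene expression was measured by qPCR. Values were normalized and modelled by partial least squares regression against the effector design.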

[2] = system: forebrain-committed neural stem cells; test: HD-DoE stage 2, 12-factor experiment: NKX2-1 expression; assay type: cell-based, human; settings: model / dynamic profile, in words
Outline: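 Forebrain-committed neural stem cells were treated for 3 days after stage 1 in a 12-factor high-dimensional DoE (LDN193189, BMP7, PD0325901, MK2206, A8301, XAV939, CHIR99021, purmorphamine, SANT-1, AGN193109, TTNPB, GSI-XX) to drive ventral forebrain identity. The read-out was NKX2-1 expression. Dynamic profile modelling also targeted minimal PAX6 and NKX2-2.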

[3] = system: human pluripotent stem cells; test: Factor criticality analysis, stage 1 recipe (dynamic profile analysis); assay type: cell-based; settings: other five stage 1 factors present, FIG. 11; for expression level of FEZF2 when the factor is removed: 2000 with all six factors; for expression level of SIX3 when the factor is removed: 3000 with all six factors; for expression level of OTX2 when the factor is removed: 5500 with all six factors
From the text: To assess the impact of the elimination of each validated factor, dynamic profile analysis was used and compared the expression level of genes of interest in absence of each finalized factor while others are present. […] When Purmorphamine was removed, levels of FEZF2 and SIX3 were decreased to 1000 and below 3000, while levels of OTX2 increased to 6500.

[4] = system: forebrain-committed neural stem cells; test: Factor criticality analysis, stage 2 recipe; assay type: cell-based, human; settings: for expression level of PAX6 when the factor is removed / expression level of NKX2-2 when the factor is removed / expression level of NKX2-1 when the factor is removed: other three stage 2 factors present; for expression level of PAX6 when the factor is removed: 0 with all four factors; for expression level of NKX2-2 when the factor is removed: 100 with all four factors; for expression level of NKX2-1 when the factor is removed: 5000 with all four factors
Method: To assess the impact of the elimination of each validated factor, dynamic profile analysis was used and compared the expression level of genes of interest in absence of each finalized factor while others are present.
In the stage 2 recipe, each of the four finalized factors were removed while the other three factors remained present and expression levels of NKX2-1, PAX6 and NKX2-2 were assessed compared to presence of all four factors. Absence of PD0325901 reduced the levels of NKX2-1 and NKX2-2 while increasing PAX6 from 5000 to 3200, 100 to 0 and 0 to 5000, respectively. […] Removing XAV939 reduced the levels of NKX2-1 from 5000 to 3000, while increasing both PAX6 and NKX2-2 to 10000 and 200, respectively. Another observation was the interaction between XAV939 and Purmorphamine. In the absence of XAV939, the impact of Purmorphamine on NKX2-1 became negative and, as it is shown in interaction plot of FIG. 14, the level of NKX2-1 is higher when both factors are present.

SMILES | impact on expression of FEZF2 [1] | factor contribution, expression of FEZF2 [1] | impact on expression of NKX2-1 [2] | expression level of FEZF2 when the factor is removed [3] | expression level of SIX3 when the factor is removed [3] | expression level of OTX2 when the factor is removed [3] | expression level of PAX6 when the factor is removed [4] | expression level of NKX2-2 when the factor is removed [4] | expression level of NKX2-1 when the factor is removed [4] | impact on NKX2-1 in the absence of XAV939 ([4]; interaction plot FIG. 14)
c1ccc2c(-c3cnn4cc(-c5ccc(N6CCNCC6)cc5)cnc34)ccnc2c1 [LDN193189] | positive impact | 18 | increase | 1000 | 0 | 4000 | below 0 | below 0 | did not significantly change | –
O=C(NOC[C@H](O)CO)c1ccc(F)c(F)c1Nc1ccc(I)cc1F [PD0325901] | positive impact | 15 | increase; also recorded: Positive impact | drop | did not have a significant impact | did not have a significant impact | 5000 | 0 | 3200 | –
c1ccc2c(Oc3nc(Nc4ccc(N5CCOCC5)cc4)c4ncn(C5CCCCC5)c4n3)cccc2c1 [Purmorphamine] | positive impact | 11 | increase | 1000 | below 3000 | 6500 | – | – | – | negative
